Assay results taken from patent publication US6015560A, “Antibody recognizing endothelial cell ligand for leukocyte CR3” (priority 1995, dated 2000).

How the values were obtained:
[1] = system: neutrophils; test: Inhibition of 125I-Factor X binding to neutrophils; parameters: species or system human
Experimental: Human Factor X (Sigma or Hematologic Technologies Inc.) was labeled with ^125 I using Iodogen (Pierce Chemical Co.) Human neutrophils were isolated from heparinized blood according to the manufacturer's specification using Neutrophil Isolation Medium (Cardinal Associates, Santa Fe, N.Mex.) and washed three times with 5 mM EDTA-phosphate-bufferedsaline (PBS), pH 7.2, at 4° C. To eliminate platelet contamination,neutrophils were incubated with autologous serum containing 5 mM EDTA for 30 mins. at 37° C., washed three times with ice-cold PBS, pH 7.2, and resuspended in RPMI 1640 tissue culture medium (Whittaker M. A. Bioproducts, Walkersville, Md.) at 4° C. Binding of ^125 I-Factor X to neutrophils was measured based on a method described by Altieri et al. (1991) Science 254: 1200-1202. Briefly, 200 μl of neutrophils (1.5×10^7 /ml) were supplemented with 17.5 μl of 50 mM CaCl2, stimulated with 3.5 μl of 100 μM NH2 -formyl-Met-Leu-Phe (Sigma), and mixed with 30 μl of 10.3 μg/ml ^125 I-Factor X and 100 μl of 1.75 mM of peptide. […] Aliquots of the supernatant (cell free ^125 I-Factor X) and the cell pellet (cell bound ^125 I-Factor X) were counted in a gamma-counter. Nonspecific binding (~50,000 cpm) was determined by adding a 100 fold excess of unlabeled Factor X, and subtracted from total radioactivity (~500,000 cpm for controls).

[2] = system: neutrophils; test: Transendothelial migration of neutrophils; assay type: cell-based, human; details: native FHA 1 μM
Experimental: Transendothelial migration of neutrophils was studied based on a method described by Muller et al. (1992), J. Exp. Med. 176: 819-828. Briefly, human neutrophils suspended in ice-cold Hanks balanced salt solution (HBSS) containing Ca^++ and Mg^++ (Sigma) were fluoresceinated by adding 3.3 μl/ml 5-(and 6-)carboxyfluorescein diacetate, succinimidyl ester (CFSE, Molecular Probes Inc., Oreg.). After incubation for 30 mins. on ice, neutrophils were washed twice in cold HBSS with Ca^++ and Mg^++ and resuspended in cold Medium 199 (M199, Sigma) to a final concentration of 10^6 /ml. Human umbilical vein endothelial cells were subcultured at confluence into 96-well tissue culture plates (Becton Dickinson Labware, Lincoln Park, N.J.) that were coated with hydrated collagen gel (Vitrogen; Collagen Corporation, Palo Alto, Calif.) and fibronectin. Endothelial cells were stimulated with 10 ng/ml TNF-alpha for 4 hours and washed three times with warm M199. Neutrophils (10^6 /ml) were preincubated with 0.01 mM of peptides or with 1 μM of native FHA in M199 for 5 mins. on ice before they were added in 100 μl aliquots to the endothelial cells. For positive control, neutrophils were pre-incubated with 25 μg/ml anti-CD18 mAb IB4. For negative control, neutrophils were treated with 25 μg/ml mAb W6/32 against HLA class I antigen (Dako, Carpinteria, Calif.). The cells were incubated for 1 hour at 37° C., 5% CO2. To terminate transmigration, the supernatant fluid was aspirated and the wells were filled with warm 1 mM EGTA (Sigma) in HBSS without Ca and Mg. The plates were covered with plate sealers (Dynatech, Alexandria, Va.) and centrifuged in an inverted position at 250 g for 3 mins. at room temperature. To remove residual non-transmigrated neutrophils from the endothelial cells, monolayers were washed twice with 200 μl of warm Hanks solution without Ca and Mg. Fluorescence was quantitated using a fluorescence counter (Millipore Cytofluor™ 2300). The percentage of transmigrated neutrophils was determined by comparing the amount of fluorescence of test wells with that measured in collagen- and fibronectin-coated wells without endothelial cells. […] Percent inhibition of transendothelial migration of neutrophils was calculated by comparing the number of transmigrated cells in wells containing neutrophils treated with peptide to neutrophils treated with M199 alone and arbitrarily set at 100% transendothelial migration (TEM).
The procedures for determining the neutrophil adherence to cultured endothelial cells and the transendothelial migration of neutrophils were identical with those of Example 9. Control values were the same as those shown in Example 9.

[3] = system: leukocytes in CSF; test: Rabbit meningitis model: leukocyte migration into CSF; assay type: in vivo
Experimental: The rabbit model was performed according to an established protocol. Specific pathogen free, New Zealand white rabbits (2 kg; Hare Marland, Nutley, N.J.) were anesthetized with valium (2.5 mg/kg, subcutaneously, Hoffman-LaRoche, Nutley, N.J.), ketamine (35 mg/kg, intramuscularly, Aveco, Fort Dodge, Iowa) and xylazine (5 mg/kg, intramuscularly, Miles Laboratories, Shawnee, Kans.) and a helmet of dental acrylic was affixed to the calvarium. Twenty four hours later, the rabbits were anesthetized with ethyl carbamate (1.75 g/kg; Aldrich Chemical Co., Milwaukee, Wis.) and pentobarbital (15 mg/kg; Abbott Laboratories, Abbott Park, Ill.) and placed in a stereotaxic frame. A spinal needle was introduced into the cisterna magna and 300 μl of CSF was withdrawn. The animals were challenged intracisternally with 10^8 heat killed, unencapsulated pneumococcus strain R6 introduced in 200 μl of saline (time 0). One hour later, animals were treated with peptides dissolved in 1 ml of saline by intravenous injection into the right marginal ear vein. The concentration of FHA was 0.1 μM and that of the FHA Ia, Factor X II, and scrambled FHA II peptides was 10 μM. For the acetyl-FHA II, acetyl/amide-FHA II, dimer of FHA II and trimer of FHA II peptides, the concentration was 10^-3 μM. The concentration of FHA II is given in the results section. Samples of CSF were withdrawn at hourly intervals after pneumococcal inoculation and leukocyte density was measured using a cell counter (Coulter Electronics Inc., Hialeah, Fla.). CSF samples were centrifuged at 10,000×g for 5 minutes and the supernatant was stored at -70° C. until assayed for protein concentration using the bicinchoninic acid method (BCA Kit, Pierce Chemical Co., Rockford, Ill.) and for lactate concentration (Lactate Detection Kit, Sigma, St. Louis, Mo.). Statistically significant differences between treatments were determined by a one way analysis of variance test.
The anti-inflammatory effects of the administered peptides were assessed in the rabbit model for meningitis by the procedures described in Example 10. The animals received 1 ml of 1 uM peptide intravenously. In a slight departure from the protocol described in Example 10, samples of blood were drawn from the left marginal ear vein 30 minutes after the administration of the peptides to determine peripheral leukocyte concentrations.

[4] = TLC plates containing ciliary extracts; cited from earlier work

Question: Which IC50 [1] does the source give for filamentous hemagglutinin [native FHA] here?
Answer: Its IC50 is 100 nM.

Question: What about the “inhibition of 125I-Factor X binding to neutrophils” value ([1]; native FHA 0.3 μM) of the same substance?
Answer: Its value is 70±4%.

Question: And the “% Inhibition of TEM” value [2]?
Answer: The value was 82±1%.

Question: What about the “% Inhibition of TEM” value ([2]; listed as FHA) of the same substance?
Answer: Its value is 82 ± 1%.

Question: What about the “% Inhibition of TEM” value ([2]; listed as Intact FHA) of the same substance?
Answer: The value was 82±1%.

Question: And the “anti-inflammatory effect (in words)” value ([3]; 10^-3 μM i.v.)?
Answer: The value was “ineffective”.

Question: And the “mean leukocyte concentration in CSF” value ([3]; 7 hours, FHA 0.1 μM (25 μg) i.v.)?
Answer: The value was 2096±450 /μl CSF.

Question: What about the “leukocyte density vs control (in words)” value ([3]; 7 hours, 10^-1 μM) of the same substance?
Answer: The value was “statistically significantly different from control”.

Question: What about the “reduction of CSF leukocytosis” value ([3]; peptides 10 μM, FHA 0.1 μM) of the same substance?
Answer: Its value is over 60%.

Question: And the binding to lactosylceramide [4]?
Answer: Its binding to lactosylceramide is “binds to lactosylceramide”.
